# Test results published in the supplement of paper PMC9663587.
# Compound: CN(C)C/C=C/C(=O)Nc1ccc(C(=O)N2CCC[C@@H](Nc3ncc(Cl)c(-c4c[nH]c5ccccc45)n3)C2)cc1 [THZ531]
# Assay: GR value, 72 h; higher = faster growth (1 = untreated, <0 = killing);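 further: breast cancer and non-malignant breast epithelial lines, nine half-log doses, viable cells counted by Hoechst and LIVE/DEAD dye imaging versus time-zero plates and DMSO controls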
# Settings: 0.0001 µM
row,Cell Line,GR value
1,MCF7,0.957 GR
2,MCF10A,0.985 GR
3,MCF12A,0.942 GR
4,MDAMB175VII,0.885 GR
5,MDAMB231,1.03 GR
6,MDAMB330,1.12 GR

# Same assay, conditions: 0.0003162 µM
row,Cell Line,GR value
1,MCF7,1.06 GR
2,MCF10A,0.995 GR
3,MCF12A,1.02 GR
4,MDAMB175VII,0.884 GR
5,MDAMB231,0.974 GR
6,MDAMB330,0.83 GR

# Same assay, conditions: 0.001 µM
row,Cell Line,GR value
1,MCF7,0.957 GR
2,MCF10A,1.01 GR
3,MCF12A,1 GR
4,MDAMB175VII,0.841 GR
5,MDAMB231,0.936 GR
6,MDAMB330,0.891 GR

# Same assay, conditions: 0.003162 µM
row,Cell Line,GR value
1,MCF7,1.02 GR
2,MCF10A,1 GR
3,MCF12A,0.929 GR
4,MDAMB175VII,0.919 GR
5,MDAMB231,1.02 GR
6,MDAMB330,0.971 GR

# Same assay, conditions: 0.01 µM
row,Cell Line,GR value
1,MCF7,1.08 GR
2,MCF10A,1.01 GR
3,MCF12A,1.01 GR
4,MDAMB175VII,1 GR
5,MDAMB231,0.939 GR
6,MDAMB330,0.805 GR

# Same assay, conditions: 0.03162 µM
row,Cell Line,GR value
1,MCF7,0.827 GR
2,MCF10A,0.981 GR
3,MCF12A,0.967 GR
4,MDAMB175VII,0.677 GR
5,MDAMB231,0.975 GR
6,MDAMB330,0.214 GR

# Same assay, conditions: 0.1 µM
row,Cell Line,GR value
1,MCF7,0.225 GR
2,MCF10A,0.903 GR
3,MCF12A,1 GR
4,MDAMB175VII,-0.409 GR
5,MDAMB231,0.751 GR
6,MDAMB330,-0.965 GR

# Same assay, conditions: 0.3162 µM
row,Cell Line,GR value
1,MCF7,-0.0791 GR
2,MCF10A,0.612 GR
3,MCF12A,0.894 GR
4,MDAMB175VII,-0.673 GR
5,MDAMB231,0.443 GR
6,MDAMB330,-0.962 GR

# Same assay, conditions: 1 µM
row,Cell Line,GR value
1,MCF7,-0.391 GR
2,MCF10A,-0.625 GR
3,MCF12A,-0.0356 GR
4,MDAMB175VII,-0.403 GR
5,MDAMB231,-0.275 GR
6,MDAMB330,-0.968 GR

# Compound: CC(=O)c1c(C)c2cnc(Nc3ccc(N4CCNCC4)cn3)nc2n(C2CCCC2)c1=O
# Assay: as above
# Settings: 0.0003162 µM
row,Cell Line,GR value
1,MCF7,1.04 GR
2,MCF10A,0.996 GR
3,MCF12A,1.04 GR
4,MDAMB175VII,0.695 GR
5,MDAMB231,1.08 GR
6,MDAMB330,1.06 GR

# Same assay, conditions: 0.001 µM
row,Cell Line,GR value
1,MCF7,1.02 GR
2,MCF10A,0.999 GR
3,MCF12A,1.03 GR
4,MDAMB175VII,0.582 GR
5,MDAMB231,1.02 GR
6,MDAMB330,0.943 GR

# Same assay, conditions: 0.003162 µM
row,Cell Line,GR value
1,MCF7,0.962 GR
2,MCF10A,0.979 GR
3,MCF12A,1.02 GR
4,MDAMB175VII,0.689 GR
5,MDAMB231,0.921 GR
6,MDAMB330,0.931 GR

# Same assay, conditions: 0.01 µM
row,Cell Line,GR value
1,MCF7,0.85 GR
2,MCF10A,0.939 GR
3,MCF12A,0.974 GR
4,MDAMB175VII,0.453 GR
5,MDAMB231,0.824 GR
6,MDAMB330,0.747 GR

# Same assay, conditions: 0.03162 µM
row,Cell Line,GR value
1,MCF7,0.626 GR
2,MCF10A,0.852 GR
3,MCF12A,0.921 GR
4,MDAMB175VII,0.156 GR
5,MDAMB231,0.637 GR
6,MDAMB330,0.376 GR

# Same assay, conditions: 0.1 µM
row,Cell Line,GR value
1,MCF7,0.476 GR
2,MCF10A,0.748 GR
3,MCF12A,0.889 GR
4,MDAMB175VII,-0.0684 GR
5,MDAMB231,0.494 GR
6,MDAMB330,0.224 GR

# Same assay, conditions: 0.3162 µM
row,Cell Line,GR value
1,MCF7,0.355 GR
2,MCF10A,0.653 GR
3,MCF12A,0.912 GR
4,MDAMB175VII,-0.0381 GR
5,MDAMB231,0.418 GR
6,MDAMB330,0.17 GR

# Same assay, conditions: 1 µM
row,Cell Line,GR value
1,MCF7,0.297 GR
2,MCF10A,0.582 GR
3,MCF12A,0.758 GR
4,MDAMB175VII,-0.0455 GR
5,MDAMB231,0.288 GR
6,MDAMB330,0.228 GR

# Same assay, conditions: 3.162 µM
row,Cell Line,GR value
1,MCF7,0.254 GR
2,MCF10A,0.444 GR
3,MCF12A,0.667 GR
4,MDAMB175VII,-0.158 GR
5,MDAMB231,0.202 GR
6,MDAMB330,0.213 GR

# Compound: CN(C)C(=O)c1cc2cnc(Nc3ccc(N4CCNCC4)cn3)nc2n1C1CCCC1 [LEE011/Ribociclib]
# Assay: as above
# Settings: 0.001 µM
row,Cell Line,GR value
1,MCF7,0.87 GR
2,MCF10A,0.91 GR
3,MCF12A,0.967 GR
4,MDAMB175VII,0.4 GR
5,MDAMB231,0.792 GR
6,MDAMB330,0.451 GR

# Same assay, conditions: 0.003162 µM
row,Cell Line,GR value
1,MCF7,0.786 GR
2,MCF10A,0.888 GR
3,MCF12A,0.953 GR
4,MDAMB175VII,0.267 GR
5,MDAMB231,0.835 GR
6,MDAMB330,0.229 GR

# Same assay, conditions: 0.01 µM
row,Cell Line,GR value
1,MCF7,0.682 GR
2,MCF10A,0.821 GR
3,MCF12A,0.948 GR
4,MDAMB175VII,0.288 GR
5,MDAMB231,0.747 GR
6,MDAMB330,0.361 GR

# Same assay, conditions: 0.03162 µM
row,Cell Line,GR value
1,MCF7,0.651 GR
2,MCF10A,0.781 GR
3,MCF12A,0.927 GR
4,MDAMB175VII,0.15 GR
5,MDAMB231,0.762 GR
6,MDAMB330,0.14 GR

# Same assay, conditions: 0.1 µM
row,Cell Line,GR value
1,MCF7,0.53 GR
2,MCF10A,0.79 GR
3,MCF12A,0.984 GR
4,MDAMB175VII,0.195 GR
5,MDAMB231,0.673 GR
6,MDAMB330,0.106 GR

# Same assay, conditions: 0.3162 µM
row,Cell Line,GR value
1,MCF7,0.414 GR
2,MCF10A,0.756 GR
3,MCF12A,0.897 GR
4,MDAMB175VII,0.0606 GR
5,MDAMB231,0.617 GR
6,MDAMB330,-0.116 GR

# Same assay, conditions: 1 µM
row,Cell Line,GR value
1,MCF7,0.407 GR
2,MCF10A,0.732 GR
3,MCF12A,0.867 GR
4,MDAMB175VII,0.0351 GR
5,MDAMB231,0.569 GR
6,MDAMB330,0.15 GR

# Same assay, conditions: 3.162 µM
row,Cell Line,GR value
1,MCF7,0.275 GR
2,MCF10A,0.665 GR
3,MCF12A,0.914 GR
4,MDAMB175VII,0.19 GR
5,MDAMB231,0.466 GR
6,MDAMB330,0.292 GR

# Same assay, conditions: 10 µM
row,Cell Line,GR value
1,MCF7,0.295 GR
2,MCF10A,0.434 GR
3,MCF12A,0.792 GR
4,MDAMB175VII,0.192 GR
5,MDAMB231,0.215 GR
6,MDAMB330,0.293 GR

# Compound: CCN1CCN(Cc2ccc(Nc3ncc(F)c(-c4cc(F)c5nc(C)n(C(C)C)c5c4)n3)nc2)CC1
# Assay: as above
# Settings: 0.001 µM
row,Cell Line,GR value
1,MCF7,0.893 GR
2,MCF10A,0.981 GR
3,MCF12A,0.987 GR
4,MDAMB175VII,0.725 GR
5,MDAMB231,0.942 GR
6,MDAMB330,0.797 GR

# Same assay, conditions: 0.003162 µM
row,Cell Line,GR value
1,MCF7,0.789 GR
2,MCF10A,0.95 GR
3,MCF12A,0.945 GR
4,MDAMB175VII,0.505 GR
5,MDAMB231,0.859 GR
6,MDAMB330,0.615 GR

# Same assay, conditions: 0.01 µM
row,Cell Line,GR value
1,MCF7,0.512 GR
2,MCF10A,0.882 GR
3,MCF12A,0.955 GR
4,MDAMB175VII,0.0712 GR
5,MDAMB231,0.699 GR
6,MDAMB330,0.306 GR

# Same assay, conditions: 0.03162 µM
row,Cell Line,GR value
1,MCF7,0.349 GR
2,MCF10A,0.78 GR
3,MCF12A,0.943 GR
4,MDAMB175VII,0.105 GR
5,MDAMB231,0.513 GR
6,MDAMB330,0.178 GR

# Same assay, conditions: 0.1 µM
row,Cell Line,GR value
1,MCF7,0.236 GR
2,MCF10A,0.665 GR
3,MCF12A,0.872 GR
4,MDAMB175VII,0.0173 GR
5,MDAMB231,0.289 GR
6,MDAMB330,0.197 GR

# Same assay, conditions: 0.3162 µM
row,Cell Line,GR value
1,MCF7,0.235 GR
2,MCF10A,0.543 GR
3,MCF12A,0.822 GR
4,MDAMB175VII,0.0287 GR
5,MDAMB231,0.169 GR
6,MDAMB330,0.241 GR

# Same assay, conditions: 1 µM
row,Cell Line,GR value
1,MCF7,0.0993 GR
2,MCF10A,0.364 GR
3,MCF12A,0.727 GR
4,MDAMB175VII,-0.0111 GR
5,MDAMB231,0.0774 GR
6,MDAMB330,0.202 GR

# Same assay, conditions: 3.162 µM
row,Cell Line,GR value
1,MCF7,-0.189 GR
2,MCF10A,0.255 GR
3,MCF12A,0.616 GR
4,MDAMB175VII,-0.0725 GR
5,MDAMB231,-0.187 GR
6,MDAMB330,0.199 GR

# Same assay, conditions: 10 µM
row,Cell Line,GR value
1,MCF7,-0.268 GR
2,MCF10A,0.159 GR
3,MCF12A,0.386 GR
4,MDAMB175VII,-0.173 GR
5,MDAMB231,-0.492 GR
6,MDAMB330,-0.0587 GR

# Compound: CC(=O)c1c(C)c2cnc(Nc3ccc(N4CCN(CCOCCOCCOCCNC(=O)COc5cccc6c5C(=O)N(C5CCC(=O)NC5=O)C6=O)CC4)cn3)nc2n(C2CCCC2)c1=O [BSJ-03-123]
# Assay: as above
# Settings: 0.001 µM
row,Cell Line,GR value
1,MCF7,0.928 GR
2,MCF10A,0.915 GR
3,MCF12A,0.975 GR
4,MDAMB175VII,0.829 GR
5,MDAMB231,0.926 GR
6,MDAMB330,0.928 GR

# Same assay, conditions: 0.003162 µM
row,Cell Line,GR value
1,MCF7,0.899 GR
2,MCF10A,0.877 GR
3,MCF12A,0.912 GR
4,MDAMB175VII,0.79 GR
5,MDAMB231,0.889 GR
6,MDAMB330,0.827 GR

# Same assay, conditions: 0.01 µM
row,Cell Line,GR value
1,MCF7,0.858 GR
2,MCF10A,0.81 GR
3,MCF12A,0.971 GR
4,MDAMB175VII,0.713 GR
5,MDAMB231,0.828 GR
6,MDAMB330,0.847 GR

# Same assay, conditions: 0.03162 µM
row,Cell Line,GR value
1,MCF7,0.784 GR
2,MCF10A,0.76 GR
3,MCF12A,0.952 GR
4,MDAMB175VII,0.688 GR
5,MDAMB231,0.779 GR
6,MDAMB330,0.727 GR

# Same assay, conditions: 0.1 µM
row,Cell Line,GR value
1,MCF7,0.789 GR
2,MCF10A,0.736 GR
3,MCF12A,0.98 GR
4,MDAMB175VII,0.734 GR
